≈ marks a conversion by molar mass, not a printed value. Structures can show the parent of a compound that is named as a salt. Where two headings read alike, the source gives them in different places.

Holding throughout (type): cell-based
The test system of assay [1] is Aspergillus fumigatus T33439 (ATCC MYA-3626). In words: Fungal MIC Protocol, Aspergillus fumigatus. The conditions noted are these: Aspergillus fumigatus, read-out: MIC Aspergillus fumigatus 3626. The essentials: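 This broth microdilution MIC test used RPMI/MOPS medium at pH 7.0 with glucose. Compounds were diluted from DMSO stock to 200 ug/mL and serially diluted ten times in 96-well round bottom plates. Equal volumes of compound and Aspergillus spore suspension at OD530 0.002 were combined, with controls of compound without cells and spores without compound. Plates were bagged and incubated at 35° C. for 48 hours.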

The subject of assay [2] is Fusarium solani (ATCC 58877). In words: Fungal MIC Protocol, Fusarium solani. The conditions noted are these: Fusarium solani, read-out: MIC Fusarium solani 58877. Put shortly:
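Broth microdilution MIC test against Fusarium solani in RPMI/MOPS medium at pH 7.0. Compounds from DMSO stock were diluted to 200 ug/mL, then serially diluted ten times and plated in duplicate at 50 μl per well. 50 ul of spore suspension at OD530 0.005 was added. Controls had compound without cells and spores without compound. Plates were mixed gently, bagged, and incubated at 35° C. for 48 hours.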

Assay [3] deals with Mucor ramosissimus 057718 (ATCC 90286). In words: Fungal MIC Protocol, Mucor ramosissimus (MIC-50). The conditions noted are these: Mucor ramosissimus, read-out: MIC-50 Mucorales ramosissimus 90286. Put shortly: (§1)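 Spores from PDA cultures (Aspergillus, Fusarium at 35 °C; Mucor at room temperature) diluted in RPMI/MOPS pH 7.0 to ~2×10^4 cfu/mL. Ten serial dilutions starting from 200 ug/mL in medium (before 1:1 mixing with spores), in duplicate; 48 h at 35 °C. MIC is the lowest concentration giving >50% visually scored growth inhibition.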

The test system of assay [4] is Mucor circinelloides 1463(62) (ATCC 26759). In words: Fungal MIC Protocol, Mucor circinelloides (MIC-50). The following applies: Mucor circinelloides, read-out: MIC-50 Mucorales circinelloides 26579. Put shortly:
as §1

Assay [5] relates to Fusarium falciforme FS1 (ATCC MYA-3636). In words: Fungal MIC Protocol, Fusarium falciforme. The conditions noted are these: Fusarium falciforme, read-out: MIC Fusarium falciforme 3636. The essentials: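 MIC against Fusarium falciforme was determined by broth microdilution in RPMI/MOPS medium containing glucose. Compounds started at 200 ug/mL and were serially diluted ten times, then combined with harvested spores adjusted to an OD530 of 0.005. Controls held compound without cells and spores without compound. Plates were bagged and incubated at 35° C. for 48 hours.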

Assay [6] relates to Candida albicans GDH2346. In words: Candida Minimal Inhibitory Concentration (MIC). The following applies: Candida albicans, read-out: MIC-50 Candida albicans GDH2346. As to the method:
Candida Minimal Inhibitory Concentration (MIC): RPMI/MOPS media is prepared by dissolving 8.4 g RPMI 1640, 34.52 g MOPS buffer and 2 g glucose in 900 mL water. The pH is adjusted to 7.0 with NaOH. The total volume is brought to 1 L and the resulting solution is filter sterilized. The Candida stock is streaked on a Yeast extract Peptone Dextrose (YPD) agar plate and grown at 35° C. for isolation of single colonies. Compounds of the disclosure are diluted to 200 μg/mL in RPMI/MOPS (4.8 ul of 10 mg/mL DMSO stock in 240 ul media). Ten (10) 1:2 serial dilutions are prepared in RPMI/MOPS in a 96-well round bottom plate. Fifty (50) μl of compound dilutions are transferred in duplicate to a sterile tissue culture-treated 96-well flat-bottom, black-sided polypropylene plate. A single colony of Candida from the YPD plate is re-suspended in 5 mL phosphate buffered saline (BS) and optical density (OD) at 600 nm is measured. The suspension is adjusted to OD=1.0 and a 1:1000 dilution is prepared in RPMI/MOPS. Fifty (50) ul aliquots of the diluted yeast are added to the plates containing 50 μL of compound to all wells except 12E-H. Control wells include: 12 A-D cells, no compound and 12 E-H no cells, no compound. The plates are mixed gently by hand and placed in Ziplok bags in a 35° C. incubator. The OD600 is measured at 24 and 48 hours.

Assay [7] has as its system Aspergillus flavus AFL1 (ATCC MYA-3631). In words: Fungal MIC Protocol, Aspergillus flavus. The following applies: Aspergillus flavus, read-out: MIC Aspergillus flavus 3631. Put shortly:
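The MIC against Aspergillus flavus was measured by broth microdilution in RPMI/MOPS medium at pH 7.0. Compounds were diluted to 200 ug/mL from DMSO stocks, then ten serial dilutions were tested in duplicate in round bottom 96-well plates. Spores adjusted to a final OD530 of 0.002 were added, with no-cell and no-compound control wells, and plates were incubated 48 hours at 35° C.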

Where [8] appears, read: 100% growth inhibition at 48 hours.
Setting [9] is: ATCC58877, 100% growth inhibition at 48 hours.
The mark [10] stands for this setting: ATCC90286, 50% growth inhibition at 48 hours.
[11] abbreviates: ATCC26759, 50% growth inhibition at 48 hours.
Where [12] appears, read: GDH2346, 50% growth inhibition at 48 hours.

With `N=C(N)N1CC=C(c2ccc(-c3cn(-c4ccc(C5=CCN(C(=N)N)CC5)cc4)nn3)cc2)CC1` [Example 30, 4(4-{1-[4-(1-Carbamimidoyl-1,2,3,6-tetrahydropyridin-4-yl)phenyl]-1H-1,2,3-triazol-4-yl}phenyl)-1,2,3,6-tetrahydropyridine-1-carboximidamide], the MIC (usually the lowest concentration found to suppress growth) is 0.01 µg/mL (≈ 0.0214 µM) in assay [1] (setting [8]), under 0.05 µg/mL in assay [2] (setting [9]), 0.01 µg/mL (≈ 0.0214 µM) in assay [5] (setting [8]) and 0.06 µg/mL (≈ 0.128 µM) in assay [7] (setting [8]). Besides, the MIC50 in assay [3] (setting [10]) was determined as 0.78 µg/mL (≈ 1.67 µM); in assay [4] (setting [11]), 0.1 µg/mL (≈ 0.214 µM); in assay [6] (setting [12]), 0.63 µg/mL (≈ 1.35 µM).

In the case of `Cl.N=C(N)N1CC=C(c2ccc(-c3nnc(-c4ccc(C5=CCN(C(=N)N)CC5)cc4)n3CCO)cc2)CC1` [Example 70, 4-(4-{5-[4-(1-carbamimidoyl-1,2,3,6-tetrahydropyridin-4-yl)phenyl]-4-(2-hydroxyethyl)-4H-1,2,4-triazol-3-yl}phenyl)-1,2,3,6-tetrahydropyridine-1-carboximidamide hydrochloride], the MIC in assay [1] (setting [8]) was 0.1 µg/mL; in assay [2] (setting [9]), 0.05 µg/mL; in assay [5] (setting [8]) it was 0.05 µg/mL; in assay [7] (setting [8]) it was 0.1 µg/mL. In addition, the MIC50 amounted to 12.5 µg/mL in assay [3] (setting [10]), 1.56 µg/mL in assay [4] (setting [11]) and 0.3 µg/mL in assay [6] (setting [12]).

Turning to `CCn1c(-c2ccc(C3=CCN(C(=N)N)CC3)cc2)nnc1-c1ccc(C2=CCN(C(=N)N)CC2)cc1` [Example 2, 4,4′-(4,4′-(4-Ethyl-4H-1,2,4-triazole-3,5-diyl)bis(4,1-phenylene)) bis(5,6-dihydropyridine-1(2H)-carboximidamide)], the MIC is 0.2 µg/mL (≈ 0.404 µM) in assay [1] (setting [8]), under 0.1 µg/mL in assay [2] (setting [9]), under 0.1 µg/mL in assay [5] (setting [8]) and under 0.1 µg/mL in assay [7] (setting [8]). Moreover, the results for the MIC50 in assay [3] (setting [10]), in assay [4] (setting [11]) and in assay [6] (setting [12]) were over 100 µg/mL, over 100 µg/mL and under 0.024 µg/mL, respectively.

Turning to `N=C(N)N1CC=C(c2ccc(-c3nnc(-c4ccc(C5=CCN(C(=N)N)CC5)c(F)c4)o3)cc2F)CC1` [Example 49, 4,4′-(4,4′-(1,3,4-oxadiazole-2,5-diyl)bis(2-fluoro-4,1-phenylene)) bis(5,6-dihydropyridine-1(2H)-carboximidamide)], the MIC in assay [1] (setting [8]) was 3.13 µg/mL (≈ 6.2 µM); in assay [2] (setting [9]), 3.13 µg/mL (≈ 6.2 µM); in assay [5] (setting [8]), under 0.1 µg/mL; in assay [7] (setting [8]) it was 0.78 µg/mL (≈ 1.55 µM). The values for the MIC50 in assay [3] (setting [10]), in assay [4] (setting [11]) and in assay [6] (setting [12]) were 25 µg/mL (≈ 49.5 µM), 1.56 µg/mL (≈ 3.09 µM) and 1.56 µg/mL (≈ 3.09 µM), respectively.

On to `Cn1nc(-c2ccc(C3=CCN(C(=N)N)CC3)cc2)cc1-c1ccc(C2=CCN(C(=N)N)CC2)cc1` [Example 54, 4,4′-(4,4′-(1-Methyl-1H-pyrazole-3,5-diyl)bis(4,1-phenylene)) bis(5,6-dihydropyridine-1(2H)-carboximidamide)], for which the MIC in assay [1] (setting [8]) was 1.56 µg/mL (≈ 3.25 µM); in assay [2] (setting [9]) it was 0.78 µg/mL (≈ 1.62 µM); in assay [5] (setting [8]) it was under 0.1 µg/mL; in assay [7] (setting [8]), 0.39 µg/mL (≈ 0.811 µM). Moreover, the MIC50 is 3.13 µg/mL (≈ 6.51 µM) in assay [3] (setting [10]), 0.39 µg/mL (≈ 0.811 µM) in assay [4] (setting [11]) and 0.5 µg/mL (≈ 1.04 µM) in assay [6] (setting [12]).

Consider `N=C(N)N1CC=C(c2ccc(-c3nnc(-c4ccc(C5=CCN(C(=N)N)CC5)cc4)n3C3CCC3)cc2)CC1` [Example 6, 4,4′-(4,4′-(4-Cyclobutyl-4H-1,2,4-triazole-3,5-diyl)bis(4,1-phenylene))bis(5,6-dihydropyridine-1(2H)-carboximidamide)], for which the MIC is 0.2 µg/mL (≈ 0.383 µM) in assay [1] (setting [8]), 0.39 µg/mL (≈ 0.748 µM) in assay [2] (setting [9]), under 0.1 µg/mL in assay [5] (setting [8]) and 0.39 µg/mL (≈ 0.748 µM) in assay [7] (setting [8]). Also, the results for the MIC50 in assay [3] (setting [10]), in assay [4] (setting [11]) and in assay [6] (setting [12]) were 1.56 µg/mL (≈ 2.99 µM), 0.78 µg/mL (≈ 1.5 µM) and 3.13 µg/mL (≈ 6 µM), respectively.

In the case of `N=C(N)N1CC=C(c2ccc(-c3nnc(-c4ccc(C5=CCN(C(=N)N)CC5)cc4F)n3CC(F)(F)F)c(F)c2)CC1` [Example 84, 4-(4-{5-[4-(1-carbamimidoyl-1,2,3,6-tetrahydropyridin-4-yl)-2-fluorophenyl]-4-(2,2,2-trifluoroethyl)-4H-1,2,4-triazol-3-yl}-3-fluorophenyl)-1,2,3,6-tetrahydropyridine-1-carboximidamide hydrochloride], the MIC in assay [1] (48 h) is 0.2 µg/mL; in assay [2] (ATCC58877, 48 h), 0.05 µg/mL; in assay [5] (48 h) it was 0.1 µg/mL; in assay [7] (48 h) it was 0.39 µg/mL. Besides, the MIC50 stood at 0.78 µg/mL in assay [3] (ATCC90286, 48 h); 0.39 µg/mL in assay [4] (ATCC26759, 48 h); 0.2 µg/mL in assay [6] (GDH2346, 48 h).

With `Cn1c(-c2cc(F)c(C3=CCN(C(=N)N)CC3)cc2F)nnc1-c1cc(F)c(C2=CCN(C(=N)N)CC2)cc1F` [Example 20, 4,4′-(4,4′-(4-Methyl-4H-1,2,4-triazole-3,5-diyl)bis(2,5-difluoro-4,1-phenylene))bis(5,6-dihydropyridine-1(2H)-carboximidamide)], the minimal inhibitory concentration (MIC) is under 0.1 µg/mL in assay [1] (setting [8]), 0.2 µg/mL (≈ 0.361 µM) in assay [2] (setting [9]), under 0.1 µg/mL in assay [5] (setting [8]) and 0.2 µg/mL (≈ 0.361 µM) in assay [7] (setting [8]). Also, the MIC50 in assay [3] (setting [10]) was 12.5 µg/mL (≈ 22.6 µM); in assay [4] (setting [11]), 0.78 µg/mL (≈ 1.41 µM); in assay [6] (setting [12]) it was 0.78 µg/mL (≈ 1.41 µM).

Take `CCn1c(-c2ccc(C3=CCN(C(=N)N)CC3)cc2F)nnc1-c1ccc(C2=CCN(C(=N)N)CC2)cc1F` [Example 10, 4,4′-(4,4′-(4-Ethyl-4H-1,2,4-triazole-3,5-diyl)bis(3-fluoro-4,1-phenylene)) bis(5,6-dihydropyridine-1(2H)-carboximidamide)]: the MIC in assay [1] (setting [8]), in assay [2] (setting [9]), in assay [5] (setting [8]) and in assay [7] (setting [8]) was under 0.1 µg/mL in each case. Further, the MIC50 in assay [3] (setting [10]) was 1.56 µg/mL (≈ 2.93 µM); in assay [4] (setting [11]) it was 0.78 µg/mL (≈ 1.47 µM); in assay [6] (setting [12]), under 0.1 µg/mL.

With `N=C(N)N1CC=C(c2ccc(-c3nnc(-c4ccc(C5=CCN(C(=N)N)CC5)cc4F)n3C3CC3)c(F)c2)CC1` [Example 17, 4,4′-(4,4′-(4-Cyclopropyl-4H-1,2,4-triazole-3,5-diyl)bis(3-fluoro-4,1-phenylene))bis(5,6-dihydropyridine-1(2H)-carboximidamide)], the MIC in assay [1] (setting [8]) is under 0.1 µg/mL; in assay [2] (setting [9]) it was 0.39 µg/mL (≈ 0.717 µM); in assay [5] (setting [8]), under 0.1 µg/mL; in assay [7] (setting [8]), 0.39 µg/mL (≈ 0.717 µM). Further, the MIC50 in assay [3] (setting [10]) came to 0.78 µg/mL (≈ 1.43 µM); in assay [4] (setting [11]) it was 0.39 µg/mL (≈ 0.717 µM); in assay [6] (setting [12]), 3.13 µg/mL (≈ 5.76 µM).

The record behind these values is US20240018121A1, “NOVEL HETEROAROMATIC COMPOUNDS EXHIBITING ANTIFUNGAL ACTIVITY AND THEIR METHOD OF USE” (FOX CHASE CHEMCIAL DIVERSITY CENTER, INC., priority 2020, published 2024).
